Data as given in publication PMC9775191, “A Subset Screen of the Compounds Australia Scaffold Library Identifies 7-Acylaminodibenzoxazepinones as Potent and Selective Hits for Anti-Giardia Drug Discovery” (Biomedicines, 2022).
Read-outs that look alike come from different tables or passages of the source.

Legend:
[1] = test system: G. duodenalis BRIS/91/HEPU/1279; assay: Primary Giardia screen at 10 µM (live-cell imaging, automated counting); format: cell-based, Giardia duodenalis; details: Giardia duodenalis
Outline: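 Singlicate, 10 μM final, 0.2% DMSO; sealed chambers, 3% O2/5% CO2/N2. Counts by live-cell imaging at 24 h and 48 h. % growth vs vehicle, media background subtracted; Z' per plate.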

[2] = test system: methicillin resistant Staphylococcus aureus (ATCC 43300); assay: Anti-bacterial activity assay; format: cell-based; details: Staphylococcus aureus, ATCC43300, 50 µM; read-out: Bacterial Inhibition S. aureus
Experimental: (§1) The activity of compounds against methicillin resistant Staphylococcus aureus (ATCC 43300), Escherichia coli (ATCC 25922), Acinetobacter baumannii (ATCC 19606) and Klebsiella pneumoniae (ATCC 700603) was assessed at 50 µM in duplicate as previously described. In brief, mid-log phase bacteria cultures were added to 384-well microtiter plate wells containing compound to final cell density of 5 × 10^5 CFU/mL in 50 µL. Plates were then covered and incubated at 37 °C for 18 h without shaking. Inhibition of bacterial growth was determined by measuring absorbance at 600 nm (Tecan M1000 Pro monochromator plate reader) and calculating percentage growth inhibition relative to the negative media and bacteria without inhibitors. Vancomycin hydrochloride (Sigma-Aldrich an affiliate of Merck KGaA, Darmstadt, Germany, #861987) and colistin sulfate (Sigma-Aldrich an affiliate of Merck KGaA, Darmstadt, Germany, C4461) were on each plate as positive controls for Gram-positive (S. aureus) and Gram-negative (E. coli, A. baumannii and K. pneumoniae) bacteria, respectively.

[3] = test system: Acinetobacter baumannii (ATCC 19606); assay: Anti-bacterial activity assay; format: cell-based; details: ATCC19606, 50 µM
Experimental: as §1

[4] = test system: Klebsiella pneumoniae (ATCC 700603); assay: Anti-bacterial activity assay; format: cell-based; details: ATCC700603, 50 µM, read-out: Bacterial Inhibition K. pneumoniae
Experimental: as §1

[5] = test system: Escherichia coli (ATCC 25922); assay: Anti-bacterial activity assay; format: cell-based; details: Escherichia coli, ATCC25922, 50 µM; read-out: Bacterial Inhibition E. coli
Experimental: as §1

[6] = test system: G. duodenalis BRIS/91/HEPU/1279; assay: Giardia dose response assay, assemblage B; format: cell-based, Giardia duodenalis; details: Giardia duodenalis; for IC50: ±SD, max 10 µM
Outline: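 Assemblage B trophozoites (BRIS/91/HEPU/1279, 1.5 × 10^4 parasites/well) faced 8–12-point doubling dilutions in duplicate, incubated 48 h at 37 °C under 3% O2, 5% CO2 in N2. Parasites were imaged and counted at 24 and 48 h. Growth inhibition was taken versus vehicle controls minus background, with IC50 by log-linear interpolation.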

[7] = test system: Neonatal foreskin fibroblast (NFF) cells; assay: Mammalian cell cytotoxicity assay (sulforhodamine B); format: cell-based, human; details: for inhibition at 20 µM: Homo sapiens, NFF, ±SD; for SI (48h Gd): Table S2, NFF vs 48 h Giardia IC50
Experimental: The selectivity of compounds of interest was assessed against NFF cells. Assays were performed using sulforhodamine B and included media only, negative (no compound, no DMSO), and vehicle (DMSO) controls as previously described. A chloroquine control plate was included in each assay. […] Repurchased SN00797640 was tested in dose–response from 100 µM against NFF. Selectivity indices (SI) were calculated by dividing mammalian cell IC50 values by G. duodenalis BRIS/91/HEPU/1279 IC50 values.

[8] = 24 h, first singlicate assay, read-out: % Inhibition n=1 24h
[9] = 24 h, re-assessment, read-out: % Inhibition n=2 24h
[10] = 24 h, read-out: Average % Inhibition 24h
[11] = 48 h, first singlicate assay, read-out: % Inhibition n=1 48h
[12] = 48 h, re-assessment, read-out: % Inhibition n=2 48h
[13] = 48 h, read-out: Average % Inhibition 48h
[14] = 24 h, read-out: G. duodenalis IC50 24h, Table S2, 24 h
[15] = 48 h, Table S2, 48 h, read-out: G. duodenalis IC50 48h

Molecule CCOc1ccc(CCNC(=O)c2ccc3c(c2)nc2n3CCOC2)cc1OCC [SN00792841, CCOc1cc(CCNC(=O)c2ccc3c(c2)nc2COCCn32)ccc1OCC] has an inhibition at 10 µM [1, 8] of 41.7%, an inhibition at 10 µM [1, 9] of 12.7% and an inhibition at 10 µM [1, 10] of 27.2%. For the same molecule, the inhibition at 10 µM [1, 11] was 88.5%, the inhibition at 10 µM [1, 12] was 71.1% and the inhibition at 10 µM [1, 13] was 79.8%. The inhibition at 50 µM [2] was -0.24%, the inhibition at 50 µM [3] was 2.57% and the inhibition at 50 µM [4] was 7.3%. For the same molecule, the inhibition at 50 µM [5] was -0.09%, the IC50 [6, 14] was > 10 µM and the IC50 [6, 15] was 4.75 ± 4.02 µM. For the same molecule, the inhibition at 20 µM [7] was -24.8 ± 15.3% and the “SI (48h Gd)” value [7] was > 4.

COc1c(C)cnc(Cn2cnc([N+](=O)[O-])c2)c1C [SN00782023, COc1c(C)cnc(Cn2cnc(c2)N(=O)=O)c1C] gave an inhibition at 10 µM [1, 8] of 40.2%, an inhibition at 10 µM [1, 9] of 11.3% and an inhibition at 10 µM [1, 10] of 25.8%. It also gave an inhibition at 10 µM [1, 11] of 83.4%, an inhibition at 10 µM [1, 12] of 82.5% and an inhibition at 10 µM [1, 13] of 82.9%. For the same molecule, the inhibition at 50 µM [2] was 10%, the inhibition at 50 µM [3] was 9.49% and the inhibition at 50 µM [4] was 8.15%. It also gave an inhibition at 50 µM [5] of 5.99%, an IC50 [6, 14] of 6.8 µM and an IC50 [6, 15] of 6.51 µM. The inhibition at 20 µM [7] was -6.3 ± 3.6% and the “SI (48h Gd)” value [7] was > 3.

For O=S1(=O)CCC(n2cc(-c3cnn(-c4ccccc4)c3)cn2)C1 (stereo not shown) [SN00776738, O=S1(=O)CCC(C1)n1ncc(c1)c1cnn(c1)c1ccccc1], the inhibition at 10 µM [1, 8] was 46.8%, the inhibition at 10 µM [1, 9] was 44.3% and the inhibition at 10 µM [1, 10] was 45.5%. For the same molecule, the inhibition at 10 µM [1, 11] was 52.3%, the inhibition at 10 µM [1, 12] was 80.1% and the inhibition at 10 µM [1, 13] was 66.2%. The inhibition at 50 µM [2] was -13.4%, the inhibition at 50 µM [3] was -4.28% and the inhibition at 50 µM [4] was 6.87%. For the same molecule, the inhibition at 50 µM [5] was 5.37%, the IC50 [6, 14] was > 10 µM and the IC50 [6, 15] was > 10 µM. It also gave an inhibition at 20 µM [7] of 16 ± 0.6%.

COc1ccc(Nc2cc(C)nc(N3CCN(C(=O)Nc4cccc(OC)c4)CC3)n2)cc1 [SN00793512, COc1ccc(cc1)Nc1cc(C)nc(n1)N1CCN(CC1)C(=O)Nc1cccc(OC)c1] gave an inhibition at 10 µM [1, 8] of 50.6%, an inhibition at 10 µM [1, 9] of 48.1% and an inhibition at 10 µM [1, 10] of 49.3%. For the same molecule, the inhibition at 10 µM [1, 11] was 88.7%, the inhibition at 10 µM [1, 12] was 84.5% and the inhibition at 10 µM [1, 13] was 86.6%. It also gave an inhibition at 50 µM [2] of 6.36%, an inhibition at 50 µM [3] of 16.8% and an inhibition at 50 µM [4] of 4.81%. The inhibition at 50 µM [5] was 3.7%, the IC50 [6, 14] was 8.74 µM and the IC50 [6, 15] was 8.63 ± 1.91 µM. The inhibition at 20 µM [7] was 35.2 ± 2.5% and the “SI (48h Gd)” value [7] was > 2.

Molecule COc1ccccc1N1CCN(C(=O)c2cc3c(C)nn(-c4ccc(C)cc4)c3s2)CC1 [SN00793100, COc1ccccc1N1CCN(CC1)C(=O)c1cc2c(C)nn(c3ccc(C)cc3)c2s1] has an inhibition at 10 µM [1, 8] of 51.9%, an inhibition at 10 µM [1, 9] of 44% and an inhibition at 10 µM [1, 10] of 48%. The inhibition at 10 µM [1, 11] was 62.1%, the inhibition at 10 µM [1, 12] was 69.2% and the inhibition at 10 µM [1, 13] was 65.6%. For the same molecule, the inhibition at 50 µM [2] was 10.1%, the inhibition at 50 µM [3] was 9.06% and the inhibition at 50 µM [4] was 7.52%. The inhibition at 50 µM [5] was 1.35%, the IC50 [6, 14] was > 10 µM and the IC50 [6, 15] was > 10 µM. The inhibition at 20 µM [7] was 46.7 ± 6.8%.

In the case of COc1ccc(-c2csc(C3=C(N)N(CC(C)(C)CN(C)C)CC3=O)n2)cc1OC [SN00776314, COc1cc(ccc1OC)c1csc(n1)C1=C(N)N(CC1=O)CC(C)(C)CN(C)C], the inhibition at 10 µM [1, 8] is reported as 31.7%, the inhibition at 10 µM [1, 9] is reported as 16.2% and the inhibition at 10 µM [1, 10] is reported as 24%. It also gave an inhibition at 10 µM [1, 11] of 85.1%, an inhibition at 10 µM [1, 12] of 68.5% and an inhibition at 10 µM [1, 13] of 76.8%. For the same molecule, the inhibition at 50 µM [2] was 13.2%, the inhibition at 50 µM [3] was 9.53% and the inhibition at 50 µM [4] was 10.9%. For the same molecule, the inhibition at 50 µM [5] was 5.58%, the IC50 [6, 14] was > 10 µM and the IC50 [6, 15] was 9.16 µM. The inhibition at 10 µM ([6]; read-out: % inhibition @ 10µM 48h (comment), Table S2 comment, 10 µM, 48 h) was 48.3%, the inhibition at 20 µM [7] was 24 ± 26.8% and the “SI (48h Gd)” value [7] was > 2.

COc1cccc(Nc2c3c(nc4ccccc24)CCC3)c1 [SN00784168, COc1cccc(c1)Nc1c2CCCc2nc2ccccc12] was tested, and the inhibition at 10 µM [1, 8] was 27.7%, the inhibition at 10 µM [1, 9] was 16.4% and the inhibition at 10 µM [1, 10] was 22%. It also gave an inhibition at 10 µM [1, 11] of 63.3%, an inhibition at 10 µM [1, 12] of 61.4% and an inhibition at 10 µM [1, 13] of 62.4%. The inhibition at 50 µM [2] was -10.7%, the inhibition at 50 µM [3] was -2.44% and the inhibition at 50 µM [4] was -3.07%. The inhibition at 50 µM [5] was 3.98%, the IC50 [6, 14] was > 10 µM and the IC50 [6, 15] was 4.58 ± 4.9 µM. For the same molecule, the inhibition at 20 µM [7] was 75.1 ± 0.3% and the “SI (48h Gd)” value [7] was < 4.
